The test system of series [1] is KPC-2 KP1004. Nature of the series: Aztreonam potentiation (MPC@4). The class given is cell-based. The following applies: minimum BLI concentration inhibiting growth with 4 μg/mL aztreonam.
In series [2] the test system is SHV-5 ec308. The class given is cell-based. To be noted: minimum BLI concentration inhibiting growth with tigemonam at 4 μg/mL.
Series [3] relates to CMY-6 EC1010. Nature of the series: Aztreonam potentiation (MPC@4). The class given is cell-based. The following applies: minimum BLI concentration inhibiting growth with 4 μg/mL aztreonam.
The test system of series [4] is ECL1002. The class given is cell-based. The following applies: minimum BLI concentration inhibiting growth with tigemonam at 4 μg/mL.
A short description of series [5]: Intravenous pharmacokinetics. It is filed as in vivo. To be noted: rat, plasma, rats, IV infusion over 0.5 hours, read-out: Free Cl (converted). On the procedure: Rats (n=3 per compound) were administered by a single infusion. IV doses were infused over 0.5 hours via an indwelling femoral vein cannula. Plasma (˜0.3 mL) samples were collected from each rat at designated time points up to 24 hours. Blood samples were centrifuged within 5 min of collection at 12000 g for 5 min to obtain plasma. The plasma samples were stored at −80° C. until analyzed. Data were analyzed using WinNonlin.

The subject of series [6] is CTX-M-14 KP1005. The class given is cell-based.
The target in series [7] is SHV-12 (Klebsiella pneumoniae, UniProt P0AD64, E235K/G234S/L31Q). The series can be described thus: Inhibition of nitrocefin cleavage by purified enzyme (Ki). The class given is biochemical. To be noted: nitrocefin reporter substrate, 10 min preincubation; read-out: Ki (SHV-12, NCF). The procedure: Purified enzymes were mixed with various concentrations of inhibitors in reaction buffer and incubated for 10 min at room temperature. Nitrocefin was added and substrate cleavage profiles were recorded at 490 nm every 10 sec for 10 min.

The test system of series [8] is CTX-M-15 KP1009. It is filed as cell-based.
Series [9] deals with ECL1002. Nature of the series: Aztreonam potentiation (MPC@4). The class given is cell-based. To be noted: minimum BLI concentration inhibiting growth with 4 μg/mL aztreonam.
Series [10] relates to SHV-5 ec308. Nature of the series: Aztreonam potentiation (MPC@4). It is filed as cell-based. The following applies: minimum BLI concentration inhibiting growth with 4 μg/mL aztreonam.
In series [11] the test system is TEM-10 ec302. It is filed as cell-based.
In series [12] the test system is OXA-48 KP1086. Nature of the series: Biapenem potentiation (MPC@1). It is filed as cell-based. To be noted: minimum BLI concentration inhibiting growth with 1 μg/mL biapenem. On the procedure: (§1) Biapenem was present in the test medium at 1 μg/mL. […] Table 3 summarizes the BLI potency of biapenem potentiation (MPC@1) for two strains overexpressing class A (KPC) and class D (OXA-48) carbapenemases. Biapenem MIC for each strain is also shown.

Series [13] relates to KP1004 KPC-2. The series can be described thus: Biapenem potentiation (MPC@1). It is filed as cell-based. To be noted: minimum BLI concentration inhibiting growth with 1 μg/mL biapenem. On the procedure: as §1
The test system of series [14] is CTX-M-15 KP1009. The series can be described thus: Aztreonam potentiation (MPC@4). It is filed as cell-based. The following applies: minimum BLI concentration inhibiting growth with 4 μg/mL aztreonam.

Like-named read-outs stand apart in the source and are kept apart here.

Chain of SHV-12 (P0AD64 22-286 L31Q/G234S/E235K): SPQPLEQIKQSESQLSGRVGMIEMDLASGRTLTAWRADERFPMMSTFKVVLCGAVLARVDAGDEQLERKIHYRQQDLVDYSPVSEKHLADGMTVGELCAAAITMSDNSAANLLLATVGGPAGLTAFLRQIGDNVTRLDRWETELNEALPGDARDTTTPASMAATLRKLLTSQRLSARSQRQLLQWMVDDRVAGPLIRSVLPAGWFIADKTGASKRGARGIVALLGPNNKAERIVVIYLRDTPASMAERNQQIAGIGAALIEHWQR

The term Ki denotes a dissociation constant, usually derived from enzyme kinetics or from competition with a known ligand. Take `Nc1nnc(C(=O)N[C@H]2Cc3cccc(C(=O)O)c3OB2O)s1` [Compound 19, (R)-3-(5-amino-1,3,4-thiadiazole-2-carboxamido)-2-hydroxy-3,4-dihydro-2H-benzo[e][1,2]oxaborinine-8-carboxylic acid]: the “AZT MPC4 KPC-2 KP1004” value in [1] was “Y (MIC of 1 μg/mL to 10 μg/mL)”. In series [2], the “TIG MPC4 SHV-5 ec308” value was “X (MIC of less than 1 μg/mL)”. Also, the “AZT MPC4 CMY-6 EC1010” value in [3] is reported as “X (MIC of less than 1 μg/mL)”. In addition, the “TIG MPC4 ECL1002” value in series [4] was “Y (MIC of 1 μg/mL to 10 μg/mL)”. In addition, the clearance in [5] (dose 10 mg/kg) was 20.8 mL/min/kg. In addition, in series [6], the “TIG MPC4 CTX-M-14 KP1005” value is on record as “Y (key: X: MIC of less than 1 μg/mL; Y: MIC of 1 μg/mL to 10 μg/mL; Z: MIC of greater than 10 μg/mL)”. For the same compound, the Ki in series [7] was below 1 nM. Moreover, the “TIG MPC4 CTX-M-15 KP1009” value in series [8] was “Y (key: X: MIC of less than 1 μg/mL; Y: MIC of 1 μg/mL to 10 μg/mL; Z: MIC of greater than 10 μg/mL)”. Further, the “AZT MPC4 ECL1002” value in series [9] is “Y (MIC of 1 μg/mL to 10 μg/mL)”. Moreover, the “AZT MPC4 SHV-5 ec308” value in series [10] was “X (MIC of less than 1 μg/mL)”. Moreover, the “TIG MPC4 TEM-10 ec302” value in series [11] was “Y (key: X: MIC of less than 1 μg/mL; Y: MIC of 1 μg/mL to 10 μg/mL; Z: MIC of greater than 10 μg/mL)”. For the same compound, the “BPM MPC1 OXA-48 KP1086” value in [12] is given as “Y (MIC of 1 μg/mL to 10 μg/mL)”. The “BPM MPC1 KP1004 KPC-2” value in series [13] is on record as “X (MIC of less than 1 μg/mL)”.
`O=C(Cc1cccs1)N[C@H]1Cc2cccc(C(=O)O)c2OB1O` [CPD A, reference compound]: the “AZT MPC4 KPC-2 KP1004” value in series [1] was “Y (MIC of 1 μg/mL to 10 μg/mL)”. Also, the “TIG MPC4 SHV-5 ec308” value in [2] is given as “Y (MIC of 1 μg/mL to 10 μg/mL)”. For the same compound, the “AZT MPC4 CMY-6 EC1010” value in series [3] is on record as “Y (MIC of 1 μg/mL to 10 μg/mL)”. The “TIG MPC4 ECL1002” value in series [4] was “Y (MIC of 1 μg/mL to 10 μg/mL)”. Moreover, the “TIG MPC4 CTX-M-14 KP1005” value in series [6] is “Y (key: X: MIC of less than 1 μg/mL; Y: MIC of 1 μg/mL to 10 μg/mL; Z: MIC of greater than 10 μg/mL)”. In [14], the “AZT MPC4 CTX-M-15 KP1009” value is given as “Y (MIC of 1 μg/mL to 10 μg/mL)”. Also, the Ki in [7] is below 1 nM. The “TIG MPC4 CTX-M-15 KP1009” value in series [8] is on record as “Y (key: X: MIC of less than 1 μg/mL; Y: MIC of 1 μg/mL to 10 μg/mL; Z: MIC of greater than 10 μg/mL)”. Also, in series [9], the “AZT MPC4 ECL1002” value was “Y (MIC of 1 μg/mL to 10 μg/mL)”. The “AZT MPC4 SHV-5 ec308” value in series [10] is “X (MIC of less than 1 μg/mL)”. In addition, in [11], the “TIG MPC4 TEM-10 ec302” value is “Z (key: X: MIC of less than 1 μg/mL; Y: MIC of 1 μg/mL to 10 μg/mL; Z: MIC of greater than 10 μg/mL)”. Besides, the “BPM MPC1 OXA-48 KP1086” value in series [12] was “Y (MIC of 1 μg/mL to 10 μg/mL)”. Also, the “BPM MPC1 KP1004 KPC-2” value in [13] is “X (MIC of less than 1 μg/mL)”.
Consider `O=C(CSC(F)F)N[C@H]1Cc2cccc(C(=O)O)c2OB1O` [Compound 3, (R)-3-(2-(difluoromethylthio)acetamido)-2-hydroxy-3,4-dihydro-2H-benzo[e][1,2]oxaborinine-8-carboxylic acid], for which, in series [1], the “AZT MPC4 KPC-2 KP1004” value is listed as “Y (MIC of 1 μg/mL to 10 μg/mL)”. Further, the “TIG MPC4 SHV-5 ec308” value in [2] was “X (MIC of less than 1 μg/mL)”. In series [3], the “AZT MPC4 CMY-6 EC1010” value is “X (MIC of less than 1 μg/mL)”. For the same compound, the “TIG MPC4 ECL1002” value in series [4] is “Y (MIC of 1 μg/mL to 10 μg/mL)”. Further, in [5] (dose 20 mg/kg), the clearance was 40.8 mL/min/kg. Further, in series [6], the “TIG MPC4 CTX-M-14 KP1005” value is “X (key: X: MIC of less than 1 μg/mL; Y: MIC of 1 μg/mL to 10 μg/mL; Z: MIC of greater than 10 μg/mL)”. Also, in [7], the Ki is below 1 nM. Moreover, in series [8], the “TIG MPC4 CTX-M-15 KP1009” value is recorded as “X (key: X: MIC of less than 1 μg/mL; Y: MIC of 1 μg/mL to 10 μg/mL; Z: MIC of greater than 10 μg/mL)”. Besides, the “AZT MPC4 ECL1002” value in series [9] is reported as “Y (MIC of 1 μg/mL to 10 μg/mL)”. Moreover, in series [10], the “AZT MPC4 SHV-5 ec308” value is listed as “X (MIC of less than 1 μg/mL)”. Moreover, in series [11], the “TIG MPC4 TEM-10 ec302” value is on record as “Y (key: X: MIC of less than 1 μg/mL; Y: MIC of 1 μg/mL to 10 μg/mL; Z: MIC of greater than 10 μg/mL)”. Also, the “BPM MPC1 OXA-48 KP1086” value in series [12] was “Y (MIC of 1 μg/mL to 10 μg/mL)”. The “BPM MPC1 KP1004 KPC-2” value in series [13] was “X (MIC of less than 1 μg/mL)”.
Consider `O=CN[C@H]1Cc2cccc(C(=O)O)c2OB1O` [Compound 4, (R)-3-formamido-2-hydroxy-3,4-dihydro-2H-benzo[e][1,2]oxaborinine-8-carboxylic acid], for which the “AZT MPC4 KPC-2 KP1004” value in [1] is listed as “X (MIC of less than 1 μg/mL)”. Moreover, the “TIG MPC4 SHV-5 ec308” value in series [2] is “Y (MIC of 1 μg/mL to 10 μg/mL)”. Besides, the “TIG MPC4 ECL1002” value in series [4] was “X (MIC of less than 1 μg/mL)”. Further, in series [5] (dose 20 mg/kg), the clearance was 28.8 mL/min/kg. In addition, the “TIG MPC4 CTX-M-14 KP1005” value in [6] was “Y (key: X: MIC of less than 1 μg/mL; Y: MIC of 1 μg/mL to 10 μg/mL; Z: MIC of greater than 10 μg/mL)”. For the same compound, the “AZT MPC4 CTX-M-15 KP1009” value in series [14] is given as “Y (MIC of 1 μg/mL to 10 μg/mL)”. Besides, the Ki in [7] is 1 to 10 nM. For the same compound, in series [8], the “TIG MPC4 CTX-M-15 KP1009” value is “Y (key: X: MIC of less than 1 μg/mL; Y: MIC of 1 μg/mL to 10 μg/mL; Z: MIC of greater than 10 μg/mL)”. For the same compound, the “AZT MPC4 ECL1002” value in [9] was “Y (MIC of 1 μg/mL to 10 μg/mL)”. Besides, the “AZT MPC4 SHV-5 ec308” value in series [10] is recorded as “Y (MIC of 1 μg/mL to 10 μg/mL)”. Further, the “TIG MPC4 TEM-10 ec302” value in series [11] was “Z (key: X: MIC of less than 1 μg/mL; Y: MIC of 1 μg/mL to 10 μg/mL; Z: MIC of greater than 10 μg/mL)”. Besides, the “BPM MPC1 OXA-48 KP1086” value in series [12] is given as “Y (MIC of 1 μg/mL to 10 μg/mL)”. Also, in series [13], the “BPM MPC1 KP1004 KPC-2” value is on record as “X (MIC of less than 1 μg/mL)”.
With `[N-]=[N+]=NCC(=O)N[C@H]1Cc2cccc(C(=O)O)c2OB1O` [Compound 8, (R)-3-(2-azidoacetamido)-2-hydroxy-3,4-dihydro-2H-benzo[e][1,2]oxaborinine-8-carboxylic acid], the “AZT MPC4 KPC-2 KP1004” value in series [1] is on record as “X (MIC of less than 1 μg/mL)”. The “TIG MPC4 SHV-5 ec308” value in series [2] is “Y (MIC of 1 μg/mL to 10 μg/mL)”. Moreover, the “TIG MPC4 ECL1002” value in series [4] was “X (MIC of less than 1 μg/mL)”. The clearance in series [5] (dose 10 mg/kg) is 35 mL/min/kg. Besides, the “TIG MPC4 CTX-M-14 KP1005” value in series [6] is given as “X (key: X: MIC of less than 1 μg/mL; Y: MIC of 1 μg/mL to 10 μg/mL; Z: MIC of greater than 10 μg/mL)”. Also, the Ki in [7] is below 1 nM. Also, in series [8], the “TIG MPC4 CTX-M-15 KP1009” value is “X (key: X: MIC of less than 1 μg/mL; Y: MIC of 1 μg/mL to 10 μg/mL; Z: MIC of greater than 10 μg/mL)”. For the same compound, the “AZT MPC4 ECL1002” value in series [9] is “Y (MIC of 1 μg/mL to 10 μg/mL)”. Moreover, the “AZT MPC4 SHV-5 ec308” value in series [10] was “X (MIC of less than 1 μg/mL)”. Further, the “BPM MPC1 OXA-48 KP1086” value in series [12] is “Y (MIC of 1 μg/mL to 10 μg/mL)”. For the same compound, in series [13], the “BPM MPC1 KP1004 KPC-2” value was “X (MIC of less than 1 μg/mL)”.

These data come from patent US9642869B2, “Boronic acid derivatives and therapeutic uses thereof” (Rempex Pharmaceuticals, Inc., priority 2013, dated 2017).
